{"source": "patent US10858384B2", "about": "“Synthetic molecule constructs” (KODE BIOTECH LIMITED, priority 2004, dated 2020)", "key": {"[1]": {"assay": "Solubility of synthetic glycolipids in hot PBS", "format": "physicochemical", "conditions": "hot PBS", "from_the_text": "In the context of this description the phrase “water soluble” means a stable, single phase system is formed when the synthetic molecule construct is contacted with water or saline (such as PBS) in the absence of organic solvents or detergents, and the term “solution” has a corresponding meaning.\nFor use in the transformation of cells the first criterion that synthetic glycolipids must satisfy is that they are soluble in aqueous solvents, e.g. phosphate buffered saline.\nInitial tests on the molecules were to establish solubility and thus eliminate those molecules that were unsuitable for use in the transformation of cells."}, "[2]": {"test_system": "endometrial cells and embryos", "assay": "Attachment of transformed endometrial cells to modified embryos", "format": "cell-based", "conditions": "15 minutes at 37° C.", "experimental": "Modified embryos (BioG-Avidin-BioIgG^B and BioG-Avidin-BioIgM^A) were prepared in accordance with the methods described in the specification accompanying the international application no. PCT/NZ03/00059 (published as WO03/087346).\nTwo concave glass slides were prepared, one with two wells of synthetic glycolipid Atri-sp-Ad-DOPE (I) inserted endometrial cells and the other with two wells of synthetic glycolipid Btri-sp-Ad-DOPE (VI) inserted endometrial cells.\nThe embryos were surrounded with endometrial cells. The wells were covered with mineral oil and incubated for 15 minutes at 37° C. Using a wide bore handling pipette each group of embryos were carefully transferred to a fresh drop of M2 media. The embryos were gently washed. The embryos were gently transferred into 2 μL of M2 media on a marked microscope slide. Each drop was overlaid with mineral oil\nUnder a central plane of focus on an Olympus microscope the number of endometrial cells adhered to the embryos in each group was assessed. The number of cells adhered to each embryo was recorded."}, "RBCs": {"test_system": "RBCs", "assay": "Insertion efficiency: post-transformation supernatant solutions, tube serology", "format": "cell-based", "experimental": "The post-transformation supernatant solutions (from Atri-sp-Ad-DOPE (I) at 0.08 mg/mL, 0.05 mg/mL and 0.03 mg/mL, and Btri-sp-Ad-DOPE (VI) at 0.6 mg/mL, 20 μL) were added neat and in a 1:2 dilution to washed, packed RBCs (60 μL). The tubes were incubated in a 37° C. waterbath for one hour, with mixing taking place every 15 minutes.\nThe transformed RBCs were washed 3× with PBS and then suspended in Cellstab™ at the appropriate concentration for serology testing."}, "[3]": {"test_system": "group O red blood cells (RBCs)", "assay": "Tube serology of group O RBCs transformed at 37° C. with synthetic glycolipids", "format": "cell-based, human", "design": "Albaclone anti-A, Tube / Bioclone anti-A, Tube: scale not given here", "experimental": "Washed packed group O red blood cells (RBCs) (3 parts by volume) and the synthetic glycolipid solution (1 part by volume, varying concentrations) were added to an eppendorf tube. The tube was incubated in a 37° C. waterbath for one hour, mixing every 15 minutes. […]\nTube serology and Diamed gel-card results for RBCs transformed with the different synthetic molecule constructs are provided in Table 38. Results for the stability of the RBCs transformed with the different synthetic glycolipids at different concentrations are provided in Tables 39 to 44."}}}
{"smiles": "CCCCCCCC/C=C\\CCCCCCCC(=O)OC[C@H](COP(=O)(O)OCCNC(=O)CCCCC(=O)NCCCO[C@@H]1O[C@H](CO)[C@H](O)[C@H](O[C@H]2O[C@H](CO)[C@H](O)[C@H](O)[C@H]2NC(C)=O)[C@H]1O[C@@H]1O[C@@H](C)[C@@H](O)[C@@H](O)[C@@H]1O)OC(=O)CCCCCCC/C=C\\CCCCCCCC", "note": "[Atri-sp-Ad-DOPE (I)]", "values": [{"measurement": "Water solubility", "setting": "[1]", "value": "Yes"}, {"measurement": "Average number of endometrial cells attached to modified embryos", "setting": "[2]; embryos modified with BioG-Avidin-BioIgG^B", "value": 2.3}, {"measurement": "Average number of endometrial cells attached to modified embryos", "setting": "[2]; embryos modified with BioG-Avidin-BioIgM^A", "value": 7.25}, {"measurement": "Score (tube serology)", "setting": "RBCs; 1:2, pre-trans conc 0.03 mg/mL", "value": 0}, {"measurement": "Score (tube serology)", "setting": "RBCs; 1:2, pre-trans conc 0.05 mg/mL", "value": 0}, {"measurement": "Score (tube serology)", "setting": "RBCs; 1:2, pre-trans conc 0.08 mg/mL", "value": 0}, {"measurement": "Score (tube serology)", "setting": "RBCs; neat, pre-trans conc 0.03 mg/mL", "value": 0}, {"measurement": "Score (tube serology)", "setting": "RBCs; neat, pre-trans conc 0.05 mg/mL", "value": 0}, {"measurement": "Score (tube serology)", "setting": "RBCs; neat, pre-trans conc 0.08 mg/mL, 37° C. 1 h", "value": 0}, {"measurement": "Albaclone anti-A, Tube", "setting": "[3]; 0.01 mg/mL", "value": 0}, {"measurement": "Bioclone anti-A, Tube", "setting": "[3]; 0.01 mg/mL", "value": 0}, {"measurement": "Albaclone anti-A, Tube", "setting": "[3]; 0.02 mg/mL", "value": 0}, {"measurement": "Bioclone anti-A, Tube", "setting": "[3]; 0.02 mg/mL", "value": 0}, {"measurement": "Agglutination, manual tube serology, Albaclone anti-A", "setting": "[3]; 0.025 mg/mL, Day 8, Alsevers", "value": "w+"}, {"measurement": "Agglutination, manual tube serology, Albaclone anti-A", "setting": "[3]; 0.025 mg/mL, Day 8, Cellstab", "value": "vw"}, {"measurement": "Agglutination, manual tube serology, Albaclone anti-A", "setting": "[3]; 0.025 mg/mL, Day 15, Alsevers", "value": 0}, {"measurement": "Agglutination, manual tube serology, Bioclone anti-A", "setting": "[3]; 0.025 mg/mL, Day 15, Alsevers", "value": "Vw"}, {"measurement": "Agglutination, manual tube serology, Albaclone anti-A", "setting": "[3]; 0.025 mg/mL, Day 15, Cellstab", "value": 0}, {"measurement": "Agglutination, manual tube serology, Albaclone anti-A", "setting": "[3]; 0.025 mg/mL, Day 22, Alsevers", "value": 0}, {"measurement": "Agglutination, manual tube serology, Bioclone anti-A", "setting": "[3]; 0.025 mg/mL, Day 22, Alsevers", "value": "w+"}, {"measurement": "Agglutination, manual tube serology, Albaclone anti-A", "setting": "[3]; 0.025 mg/mL, Day 44, Cellstab", "value": "w+"}, {"measurement": "Agglutination, manual tube serology, Bioclone anti-A", "setting": "[3]; 0.025 mg/mL, Day 44, Cellstab", "value": "w+"}, {"measurement": "Albaclone anti-A, Tube", "setting": "[3]; 0.03 mg/mL", "value": 0}, {"measurement": "Bioclone anti-A, Tube", "setting": "[3]; 0.03 mg/mL", "value": "w+"}, {"measurement": "Albaclone anti-A, Tube", "setting": "[3]; 0.04 mg/mL", "value": "w+"}, {"measurement": "Albaclone anti-A, Tube", "setting": "[3]; 0.05 mg/mL", "value": "w+"}, {"measurement": "Agglutination, manual tube serology, Albaclone anti-A", "setting": "[3]; 0.05 mg/mL, Day 15, Cellstab", "value": "w+"}]}
